Activity calls are given as the source filed them. How the calls were made is not given here.
What was measured:
Assay in all cases: kinase panel binding selectivity, selectivity assay, biochemical, KINOMEscan (AID 1982)
ANKK1 = conditions: KINOMEscan 353-kinase binding panel, qPCR, at 10 µM, stronger effect = lower value
CDK3 = conditions: KINOMEscan 353-kinase binding panel, qPCR, at 10 µM, stronger effect = lower value
CIT = conditions: KINOMEscan 353-kinase binding panel, qPCR, at 10 µM, stronger effect = lower value
[1] = biological target: Cyclin-dependent kinase 8 (Homo sapiens) (UniProt P49336); conditions: KINOMEscan 353-kinase binding panel, qPCR; CDK8; at 10 µM; stronger effect = lower value
[2] = biological target: Cyclin-dependent kinase 9 (Homo sapiens) (UniProt P50750); conditions: KINOMEscan 353-kinase binding panel, qPCR; CDK9; at 10 µM; stronger effect = lower value
DCAMKL3 = conditions: KINOMEscan 353-kinase binding panel, qPCR, at 10 µM, stronger effect = lower value
ERK4 = conditions: KINOMEscan 353-kinase binding panel, qPCR, at 10 µM, stronger effect = lower value
[3] = biological target: Ephrin type-A receptor 2 (Homo sapiens) (UniProt P29317); conditions: KINOMEscan 353-kinase binding panel, qPCR; EPHA2; at 10 µM; stronger effect = lower value
[4] = biological target: Inhibitor of nuclear factor kappa-B kinase subunit beta (Homo sapiens) (UniProt O14920); conditions: KINOMEscan 353-kinase binding panel, qPCR; IKK-beta; at 10 µM; stronger effect = lower value
LIMK2 = conditions: KINOMEscan 353-kinase binding panel, qPCR, at 10 µM, stronger effect = lower value
[5] = biological target: Macrophage-stimulating protein receptor (Homo sapiens) (UniProt Q04912); conditions: KINOMEscan 353-kinase binding panel, qPCR; MST1R; at 10 µM; stronger effect = lower value
[6] = biological target: Mast/stem cell growth factor receptor Kit (Homo sapiens) (UniProt P10721); conditions: KINOMEscan 353-kinase binding panel, qPCR, at 10 µM, stronger effect = lower value
[7] = biological target: Misshapen-like kinase 1 (Homo sapiens) (UniProt Q8N4C8); conditions: KINOMEscan 353-kinase binding panel, qPCR; MINK; at 10 µM; stronger effect = lower value
[8] = biological target: Mitogen-activated protein kinase kinase kinase kinase 2 (Homo sapiens) (UniProt Q12851); conditions: KINOMEscan 353-kinase binding panel, qPCR; MAP4K2; at 10 µM; stronger effect = lower value
PAK4 = conditions: KINOMEscan 353-kinase binding panel, qPCR, at 10 µM, stronger effect = lower value
PIK3CA = conditions: KINOMEscan 353-kinase binding panel, qPCR, at 10 µM, stronger effect = lower value
PKAC-beta = conditions: KINOMEscan 353-kinase binding panel, qPCR, at 10 µM, stronger effect = lower value
[9] = biological target: Protein-tyrosine kinase 2-beta (Homo sapiens) (UniProt Q14289); conditions: KINOMEscan 353-kinase binding panel, qPCR; PTK2B; at 10 µM; stronger effect = lower value
[10] = biological target: Protein-tyrosine kinase 6 (Homo sapiens) (UniProt Q13882); conditions: KINOMEscan 353-kinase binding panel, qPCR; PTK6; at 10 µM; stronger effect = lower value
RIPK1 = conditions: KINOMEscan 353-kinase binding panel, qPCR, at 10 µM, stronger effect = lower value
RPS6KA2(Kin.Dom.2) = conditions: KINOMEscan 353-kinase binding panel, qPCR, at 10 µM, stronger effect = lower value
[11] = biological target: Rho-associated protein kinase 2 (Homo sapiens) (UniProt O75116); conditions: KINOMEscan 353-kinase binding panel, qPCR; ROCK2; at 10 µM; stronger effect = lower value
[12] = biological target: SRSF protein kinase 1 (Homo sapiens) (UniProt Q96SB4); conditions: KINOMEscan 353-kinase binding panel, qPCR; SRPK1; at 10 µM; stronger effect = lower value
[13] = biological target: Serine/threonine-protein kinase PAK 5 (Homo sapiens) (UniProt Q9P286); conditions: KINOMEscan 353-kinase binding panel, qPCR; PAK7/PAK5; at 10 µM; stronger effect = lower value
[14] = biological target: Serine/threonine-protein kinase PLK3 (Homo sapiens) (UniProt Q9H4B4); conditions: KINOMEscan 353-kinase binding panel, qPCR, at 10 µM, stronger effect = lower value
[15] = biological target: Serine/threonine-protein kinase pim-2 (Homo sapiens) (UniProt Q9P1W9); conditions: KINOMEscan 353-kinase binding panel, qPCR; PIM2; at 10 µM; stronger effect = lower value
TAK1 = conditions: KINOMEscan 353-kinase binding panel, qPCR, at 10 µM, stronger effect = lower value
TIE1 = conditions: KINOMEscan 353-kinase binding panel, qPCR, at 10 µM, stronger effect = lower value
[16] = biological target: Testis-specific serine/threonine-protein kinase 1 (Homo sapiens) (UniProt Q9BXA7); conditions: KINOMEscan 353-kinase binding panel, qPCR; TSSK1; at 10 µM; stronger effect = lower value
[17] = biological target: Tyrosine-protein kinase BTK (Homo sapiens) (UniProt Q06187); conditions: KINOMEscan 353-kinase binding panel, qPCR, at 10 µM, stronger effect = lower value
[18] = biological target: Tyrosine-protein kinase Lyn (Homo sapiens) (UniProt P07948); conditions: KINOMEscan 353-kinase binding panel, qPCR, at 10 µM, stronger effect = lower value
[19] = biological target: Wee1-like protein kinase (Homo sapiens) (UniProt P30291); conditions: KINOMEscan 353-kinase binding panel, qPCR, at 10 µM, stronger effect = lower value
p38-delta = conditions: KINOMEscan 353-kinase binding panel, qPCR, at 10 µM, stronger effect = lower value

Measured: percent of control binding

Chain of Mast/stem cell growth factor receptor Kit (Homo sapiens) (P10721 whole entry, looked up): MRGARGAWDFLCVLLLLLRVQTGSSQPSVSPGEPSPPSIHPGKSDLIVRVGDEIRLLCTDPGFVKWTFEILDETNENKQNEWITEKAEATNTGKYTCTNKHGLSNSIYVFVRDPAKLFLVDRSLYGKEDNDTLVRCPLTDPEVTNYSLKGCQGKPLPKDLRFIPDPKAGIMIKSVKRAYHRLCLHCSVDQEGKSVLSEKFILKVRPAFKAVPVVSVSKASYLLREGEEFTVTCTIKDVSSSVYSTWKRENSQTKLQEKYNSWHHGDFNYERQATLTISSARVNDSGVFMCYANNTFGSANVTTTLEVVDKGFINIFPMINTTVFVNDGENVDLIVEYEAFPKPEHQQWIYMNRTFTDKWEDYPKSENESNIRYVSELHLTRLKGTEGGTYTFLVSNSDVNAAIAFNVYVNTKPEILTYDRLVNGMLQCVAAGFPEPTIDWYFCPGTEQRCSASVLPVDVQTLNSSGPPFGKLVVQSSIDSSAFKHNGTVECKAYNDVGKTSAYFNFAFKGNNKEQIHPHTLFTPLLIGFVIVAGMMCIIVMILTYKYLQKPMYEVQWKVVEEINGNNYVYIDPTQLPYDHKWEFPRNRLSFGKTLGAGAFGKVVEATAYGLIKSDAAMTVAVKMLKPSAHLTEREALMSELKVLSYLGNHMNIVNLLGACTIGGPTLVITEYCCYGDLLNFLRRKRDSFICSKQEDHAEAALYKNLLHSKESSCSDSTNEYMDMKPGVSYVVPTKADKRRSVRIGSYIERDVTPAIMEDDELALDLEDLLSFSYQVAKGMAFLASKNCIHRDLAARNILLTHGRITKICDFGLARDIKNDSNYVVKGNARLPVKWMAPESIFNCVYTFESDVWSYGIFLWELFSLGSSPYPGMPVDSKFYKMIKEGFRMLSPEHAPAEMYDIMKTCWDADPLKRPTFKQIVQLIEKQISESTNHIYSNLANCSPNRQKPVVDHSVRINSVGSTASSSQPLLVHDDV
Chain of Testis-specific serine/threonine-protein kinase 1 (Homo sapiens) (Q9BXA7 whole entry, looked up): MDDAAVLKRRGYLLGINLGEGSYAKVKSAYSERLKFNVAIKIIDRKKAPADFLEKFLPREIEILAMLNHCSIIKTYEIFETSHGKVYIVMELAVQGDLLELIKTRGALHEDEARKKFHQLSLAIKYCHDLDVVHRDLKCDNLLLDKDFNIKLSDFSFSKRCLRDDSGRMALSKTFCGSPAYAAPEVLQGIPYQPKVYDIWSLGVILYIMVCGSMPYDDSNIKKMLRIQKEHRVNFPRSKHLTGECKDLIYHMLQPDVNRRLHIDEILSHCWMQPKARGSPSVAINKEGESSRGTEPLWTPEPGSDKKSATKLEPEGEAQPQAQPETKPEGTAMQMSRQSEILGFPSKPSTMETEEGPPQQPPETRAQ
Chain of Cyclin-dependent kinase 8 (Homo sapiens) (P49336 whole entry, looked up): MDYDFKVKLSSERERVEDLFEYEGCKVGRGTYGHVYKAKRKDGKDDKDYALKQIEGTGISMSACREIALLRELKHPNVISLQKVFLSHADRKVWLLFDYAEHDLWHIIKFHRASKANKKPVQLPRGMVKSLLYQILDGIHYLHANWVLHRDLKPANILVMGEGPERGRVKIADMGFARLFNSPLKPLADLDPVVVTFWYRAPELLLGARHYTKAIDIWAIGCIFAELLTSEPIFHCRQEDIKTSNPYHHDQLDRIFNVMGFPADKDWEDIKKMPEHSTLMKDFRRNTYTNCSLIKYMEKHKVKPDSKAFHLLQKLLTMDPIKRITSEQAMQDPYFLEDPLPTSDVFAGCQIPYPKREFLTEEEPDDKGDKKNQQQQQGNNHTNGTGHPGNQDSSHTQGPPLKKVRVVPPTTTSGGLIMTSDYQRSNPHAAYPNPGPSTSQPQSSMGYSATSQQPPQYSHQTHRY
Chain of Serine/threonine-protein kinase PLK3 (Homo sapiens) (Q9H4B4 whole entry, looked up): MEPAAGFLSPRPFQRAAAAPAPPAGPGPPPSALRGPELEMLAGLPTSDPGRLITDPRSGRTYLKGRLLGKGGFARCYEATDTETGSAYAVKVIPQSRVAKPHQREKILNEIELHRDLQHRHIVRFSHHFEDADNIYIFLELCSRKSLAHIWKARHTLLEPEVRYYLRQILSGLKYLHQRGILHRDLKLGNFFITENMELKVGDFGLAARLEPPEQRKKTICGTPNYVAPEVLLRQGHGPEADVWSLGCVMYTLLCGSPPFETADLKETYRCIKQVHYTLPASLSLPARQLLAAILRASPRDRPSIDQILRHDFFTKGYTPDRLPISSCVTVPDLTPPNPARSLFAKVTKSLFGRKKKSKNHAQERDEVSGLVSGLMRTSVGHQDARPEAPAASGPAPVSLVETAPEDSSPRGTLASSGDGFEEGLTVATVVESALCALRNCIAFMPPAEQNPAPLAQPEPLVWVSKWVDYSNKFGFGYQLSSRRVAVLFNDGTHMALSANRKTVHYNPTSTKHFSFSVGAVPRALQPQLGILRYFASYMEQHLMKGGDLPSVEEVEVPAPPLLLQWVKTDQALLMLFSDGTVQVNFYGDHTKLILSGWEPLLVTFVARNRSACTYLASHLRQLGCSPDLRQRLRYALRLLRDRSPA
Chain of Macrophage-stimulating protein receptor (Homo sapiens) (Q04912 whole entry, looked up): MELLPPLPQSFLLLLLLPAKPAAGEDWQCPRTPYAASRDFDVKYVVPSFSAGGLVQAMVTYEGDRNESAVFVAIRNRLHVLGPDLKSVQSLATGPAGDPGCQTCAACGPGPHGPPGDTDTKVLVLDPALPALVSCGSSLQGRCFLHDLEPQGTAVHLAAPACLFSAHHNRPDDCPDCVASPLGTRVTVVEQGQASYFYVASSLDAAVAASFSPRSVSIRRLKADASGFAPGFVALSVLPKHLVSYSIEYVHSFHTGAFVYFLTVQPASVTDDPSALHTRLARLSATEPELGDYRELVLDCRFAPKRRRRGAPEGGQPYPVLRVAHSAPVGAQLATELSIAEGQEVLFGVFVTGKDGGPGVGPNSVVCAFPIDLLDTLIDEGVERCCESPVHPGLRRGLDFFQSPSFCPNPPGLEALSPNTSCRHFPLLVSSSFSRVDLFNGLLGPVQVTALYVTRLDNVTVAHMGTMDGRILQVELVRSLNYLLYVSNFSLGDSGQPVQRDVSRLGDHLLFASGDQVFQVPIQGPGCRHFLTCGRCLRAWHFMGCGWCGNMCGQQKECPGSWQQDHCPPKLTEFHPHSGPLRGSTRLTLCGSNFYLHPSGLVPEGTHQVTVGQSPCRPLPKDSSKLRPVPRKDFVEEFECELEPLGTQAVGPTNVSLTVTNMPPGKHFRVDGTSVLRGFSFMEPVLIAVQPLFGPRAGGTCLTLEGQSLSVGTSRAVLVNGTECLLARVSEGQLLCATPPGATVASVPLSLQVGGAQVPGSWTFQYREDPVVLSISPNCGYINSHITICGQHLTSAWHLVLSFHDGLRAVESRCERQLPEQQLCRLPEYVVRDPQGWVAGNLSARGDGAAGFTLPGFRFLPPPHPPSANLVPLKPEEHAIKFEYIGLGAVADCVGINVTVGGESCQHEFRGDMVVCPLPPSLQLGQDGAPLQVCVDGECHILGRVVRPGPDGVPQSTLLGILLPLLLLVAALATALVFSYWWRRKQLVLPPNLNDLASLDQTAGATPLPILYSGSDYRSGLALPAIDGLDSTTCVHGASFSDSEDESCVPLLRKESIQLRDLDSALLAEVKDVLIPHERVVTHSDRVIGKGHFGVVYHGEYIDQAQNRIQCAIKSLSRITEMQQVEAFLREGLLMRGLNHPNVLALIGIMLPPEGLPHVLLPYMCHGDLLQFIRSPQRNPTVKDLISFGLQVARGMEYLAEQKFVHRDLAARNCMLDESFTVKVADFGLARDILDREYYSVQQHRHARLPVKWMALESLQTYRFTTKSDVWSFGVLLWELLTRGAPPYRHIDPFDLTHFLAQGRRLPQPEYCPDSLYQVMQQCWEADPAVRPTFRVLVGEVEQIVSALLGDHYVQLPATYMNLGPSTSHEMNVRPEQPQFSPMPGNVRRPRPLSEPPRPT
Chain of SRSF protein kinase 1 (Homo sapiens) (Q96SB4 whole entry, looked up): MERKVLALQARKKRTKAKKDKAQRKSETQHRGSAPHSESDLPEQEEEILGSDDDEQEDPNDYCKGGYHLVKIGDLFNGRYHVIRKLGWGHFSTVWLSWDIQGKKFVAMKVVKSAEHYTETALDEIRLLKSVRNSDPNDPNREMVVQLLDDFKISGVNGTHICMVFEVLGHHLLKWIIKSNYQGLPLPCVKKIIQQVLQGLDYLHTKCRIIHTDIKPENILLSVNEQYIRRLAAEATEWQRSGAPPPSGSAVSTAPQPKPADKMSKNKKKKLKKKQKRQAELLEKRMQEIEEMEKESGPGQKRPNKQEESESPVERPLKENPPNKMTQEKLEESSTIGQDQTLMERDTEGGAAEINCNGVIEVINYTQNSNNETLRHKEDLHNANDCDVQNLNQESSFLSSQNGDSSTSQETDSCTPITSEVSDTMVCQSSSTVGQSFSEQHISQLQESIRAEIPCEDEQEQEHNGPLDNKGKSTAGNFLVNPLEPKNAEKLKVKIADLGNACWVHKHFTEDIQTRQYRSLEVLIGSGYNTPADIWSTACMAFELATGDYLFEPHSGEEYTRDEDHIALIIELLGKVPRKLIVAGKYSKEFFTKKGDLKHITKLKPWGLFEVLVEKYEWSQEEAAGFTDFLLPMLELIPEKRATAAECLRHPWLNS
Chain of Tyrosine-protein kinase Lyn (Homo sapiens) (P07948 whole entry, looked up): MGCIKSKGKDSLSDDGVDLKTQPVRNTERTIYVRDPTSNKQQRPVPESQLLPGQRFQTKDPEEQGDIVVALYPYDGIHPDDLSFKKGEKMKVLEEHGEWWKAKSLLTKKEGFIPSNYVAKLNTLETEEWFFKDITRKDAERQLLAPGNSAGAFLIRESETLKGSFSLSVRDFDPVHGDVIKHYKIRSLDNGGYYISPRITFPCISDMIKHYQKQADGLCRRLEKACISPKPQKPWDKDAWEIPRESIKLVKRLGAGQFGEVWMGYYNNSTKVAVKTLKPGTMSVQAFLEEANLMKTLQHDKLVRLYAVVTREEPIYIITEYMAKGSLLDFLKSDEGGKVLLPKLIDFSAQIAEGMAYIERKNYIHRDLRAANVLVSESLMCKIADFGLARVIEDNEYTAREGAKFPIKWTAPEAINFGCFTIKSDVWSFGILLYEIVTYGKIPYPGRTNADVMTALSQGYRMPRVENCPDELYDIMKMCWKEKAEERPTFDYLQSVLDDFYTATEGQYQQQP

Cc1cc2nc(NCCCO)n(CC(=O)c3cc(C(C)(C)C)c(O)c(C(C)(C)C)c3)c2cc1C
inactive: ANKK1 100% | CDK3 82% | CIT 100% | [1] 93% | [2] 91% | DCAMKL3 100% | ERK4 100% | [3] 100% | [4] 78% | LIMK2 80% | [5] 100% | [6] 92% | [6]; KIT(D816V) 90% | [6]; KIT(V559D) 95% | [6]; KIT(V559D,T670I) 94% | [6]; KIT(V559D,V654A) 92% | [7] 100% | [8] 89% | PAK4 92% | PIK3CA 78% | PKAC-beta 95% | [9] 100% | [10] 100% | RIPK1 100% | RPS6KA2(Kin.Dom.2) 100% | [11] 59% | [12] 100% | [13] 79% | [14] 100% | [15] 94% | TAK1 100% | TIE1 100% | [16] 100% | [17] 85% | [18] 88% | [19] 90% | p38-delta 100%
